Experimental data taken from US7563862B2, “Neural regeneration peptides and methods for their use in treatment of brain damage” (Neuren Pharmaceuticals Limited, priority 2001, dated 2009).
Ends that are not written are not given here.

What was measured:
cerebellar microexplants = experiment: cerebellar microexplant neuronal migration assay; format: cell-based, rat
Description: Another assay of this invention includes embodiments comprising cerebellar microexplants. Laminated cerebellar cortices of the two hemispheres were explanted from a P-4 Long Evans rat, cut into small pieces in GBSS with 0.65% D(+)glucose solution, and triturated by a 0.4 mm gauge needle and subsequently pressed through a 125 μm pore size sieve. The obtained microexplants were centrifuged (200×g) 2 times for a medium exchange into serum-free BSA-supplemented START V-medium (Biochrom). Finally, the microexplants were reconstituted in 500 μl STARTV-medium. For culturing, 38 μl of the cell suspension and 2 μl of migration-inducing factor (NRP-1) in 0.01 M sodium phosphate (pH 7.3) or phosphate alone (control) was incubated for 3 hours on a poly-D-lysine-coated cover slip in a 35 mm Petri dish under an atmosphere comprising 5% CO2 in air and 100% humidity at 34° C. Subsequently, 1 ml of STARTV-medium was added, and the cultures were evaluated after 2-3 days of culture (for example, see FIG. 2).
For immunohistochemistry and neuronal migration experiments, cerebellar microexplants were fixed after 2-3 days in culture after the following regime: microexplants were fixed by 2-minute, serial treatment with 0.4%; 1.2%; 3% paraformaldehyde/0.25% glutaraldehyde, respectively, followed by a 5 min incubation in 4% paraformaldehyde/0.25% glutaraldehyde in 0.1 M sodium phosphate (pH 7.4). MAP-2 was detected using the biotin-streptavidin/Cy3 detection system as described under the immunohistochemistry section of the thalamocortical OTCs.
Microexplants having a diameter between 100-120 μm were chosen for statistical analysis. For quantitative analysis of neuronal migration, an optical device having 10 consecutive rings of 100 μm diameter was applied over the microexplants. All neurons that had migrated after 48 h of culture were counted. Neurons located between circles 1 to 10 (0.1-1 mm) around the margin of the respective microexplant (see FIG. 2) were counted, and each circle was expressed as a percentage of total migrating cells. The unpaired Student's t-test was used for significance analysis. Results were given as mean values±standard deviation.

GFAP-positive astrocytes = experiment: astrocyte proliferation (GFAP/BrdU) in thalamocortical OTC cell bridge; format: cell-based, rat
Method: FIG. 12 depicts the specificity of the proliferation induced by NRP-1 (SEQ ID NO: 2). We tested the proliferation status of astroglia by monitoring the expression patterns for GFAP and BrdU-incorporation. Thalamocortical OTCs were supplemented with 3 nM highly purified migration-inducing factor and fixed following 4 days in vitro. FIG. 12A (left panel) depicts non-proliferative GFAP-positive astrocytes (white arrows) accompanying the neuronal migration stream, with a subpopulation of astrocytes of proliferative character (FIG. 12B, right panel; white arrow heads). Approximately 30% of the astrocytes in close vicinity to the neuronal migration stream were of proliferative character. Bar: 50 μm.
We also investigated the effects of NRP-1 (SEQ ID NO:2) on the induction of proliferation within astrocytes in a qualitative way. […] Therefore we looked only at the newly formed cell bridge between the thalamic and cortical tissue 4 days after NRP administration.

mouse neural stem cells = experiment: haptotactic migration assay, mouse neural stem cells; format: cell-based
Method: (§1) NRPs were tested for migration-inducing/chemoattractive activity on mouse neural stem cells, EGF-dependent immortalized mouse neural stem cell line MEB5 and wild-type PC-12 cells in a haptotactic migration assay as described below.
(§2) Initial NRP Coating. Control wells of Transwell plates (Coming) with 12 μm pore size were coated in 1.5 ml of the BSA/PBS vehicle. Remaining plates were coated using various concentrations of NRPs ranging between 1-100 ng/ml (prepared in PBS containing 10 ug/ml BSA). The plates were then incubated at 37° C. for 1 hr to coat. Wells were then rinsed 2× with 1 ml sterile PBS.
(§3) Laminin ([…]) for MEB-5 cells, PDL (50 μg/ml)+Matrigel for mouse primary stem cells and fibronectin (25 ug/ml)+matrigel for PC-12 cells were used as extracellular matrix (ECM) coating for the cells. All ECM compounds were diluted in PBS. 1.5 ml of the ECM per well was incubated for 2 hrs at room temperature. The wells were then rinsed once with Iml serum-free media (e.g. NB/B27) followed by 1 ml PBS wash.
A 5 ug/mL PDL/PLL mixture (in PBS) was used to coat inserts. Subsequently the inserts were rinsed with MilliQ water.
Transferring to Media and Cell Seeding: Appropriate medium (MEB-5 cells: DMEM-high glucose+N2 (growth medium supplement from Invitrogen)+10 ng/biotin+2 mM L-glutamine, primary stem cells: NSA-medium from Euroclone and for PC-12 cells: NB/B27 medium) was transferred into the 12-well plates. […] Plates were fixed at 1-2 days in vitro (DIV).
Fixation: Inserts were discarded and wells fixed in successive dilutions of PFA (0.4, 1.2, 3 and 4%) for 3-5min in each dilution. […] The wells were rinsed and stored in PBS until counting.
A haptotactic migration assay was performed according to the description of Example 10 using rat NRP-9SD (SEQ ID NO:34) (4 nM) and mouse NRP-7SW (SEQ ID NO:24) (0.4 nM) as attractants in a Boyden chamber

wild-type PC-12 cells = experiment: haptotactic migration assay, PC-12 cells; format: cell-based; settings: 1 ng/ml coating followed by matrigel/PDL, 100,000 cells
Method: as §1, §2, §3
A 5 ug/mL PDL/PLL mixture (in PBS) was used to coat inserts. Subsequently the inserts were rinsed with MilliQ water. […]

Substance | concentration sufficient to induce significantly enhanced migration of neurons (cerebellar microexplants) [nM] | migrating cerebellar cells distributed between 400-500 μm from microexplant margin (cerebellar microexplants; 3 nM, 2 days of culture) [%] | migrating cerebellar cells distributed between 500-600 μm from microexplant margin (cerebellar microexplants; 3 nM, 2 days of culture) [%] | distance from the cerebellar margin where most of the cells were distributed (cerebellar microexplants; two days after administration) | distance from the margin of a significant population of cells (cerebellar microexplants; two days after administration) | astroglial division (GFAP-positive astrocytes) | astrocytes in close vicinity to the neuronal migration stream of proliferative character (GFAP-positive astrocytes; 3 nM, 4 days in vitro) | more NSCs attracted to the culture dish bottom (mouse neural stem cells; 0.4 nM) [fold] | more E-14 cell density compared with BSA-vehicle (mouse neural stem cells; 10 ng/ml coating, 400,000 cells) [%] | potency relative to SDF-1 (mouse neural stem cells; SDF-1 100 nM vs NRP-7SW 0.2 nM) | more PC-12 cells migrated compared with BSA vehicle (wild-type PC-12 cells) [%]
NRP-1: rat 16 amino acid neural regeneration peptide purified from hippocampal OTC supernatant, Tyr Asp Pro Glu ... Cys His-NH2 (YDPEAASAPGSGNPCH-NH2) | 3 | 7.3±2.8 | 13.2±13.9 | 200-300 μm | 500-600 μm | does not induce astroglial division | Approximately 30% | – | – | – | –
SEPEARRAPGRKGGVVCASLAADW-NH2 [NRP-7 segment SW, 24-mer form of mouse NRP-7] | – | – | – | – | – | – | – | 2 | 35 | about 500 times | 333
